In patent US20100105655A1, “NOVEL COMPOUNDS 515” (ASTRAZENECA AB, priority 2008, published 2010):

Molecular target: T1, IGFR kinase (Homo sapiens, UniProt P08069)
T1 construct: purchased Millipore
Assay: Enzyme assay (c), IGFR kinase, Caliper LabChip
Type: biochemical
Conditions: 30 nM IGFR kinase, 6 uM ATP, 3 uM peptide mix; read-out: IGFR IC50

T1 sequence (P08069 31-1367): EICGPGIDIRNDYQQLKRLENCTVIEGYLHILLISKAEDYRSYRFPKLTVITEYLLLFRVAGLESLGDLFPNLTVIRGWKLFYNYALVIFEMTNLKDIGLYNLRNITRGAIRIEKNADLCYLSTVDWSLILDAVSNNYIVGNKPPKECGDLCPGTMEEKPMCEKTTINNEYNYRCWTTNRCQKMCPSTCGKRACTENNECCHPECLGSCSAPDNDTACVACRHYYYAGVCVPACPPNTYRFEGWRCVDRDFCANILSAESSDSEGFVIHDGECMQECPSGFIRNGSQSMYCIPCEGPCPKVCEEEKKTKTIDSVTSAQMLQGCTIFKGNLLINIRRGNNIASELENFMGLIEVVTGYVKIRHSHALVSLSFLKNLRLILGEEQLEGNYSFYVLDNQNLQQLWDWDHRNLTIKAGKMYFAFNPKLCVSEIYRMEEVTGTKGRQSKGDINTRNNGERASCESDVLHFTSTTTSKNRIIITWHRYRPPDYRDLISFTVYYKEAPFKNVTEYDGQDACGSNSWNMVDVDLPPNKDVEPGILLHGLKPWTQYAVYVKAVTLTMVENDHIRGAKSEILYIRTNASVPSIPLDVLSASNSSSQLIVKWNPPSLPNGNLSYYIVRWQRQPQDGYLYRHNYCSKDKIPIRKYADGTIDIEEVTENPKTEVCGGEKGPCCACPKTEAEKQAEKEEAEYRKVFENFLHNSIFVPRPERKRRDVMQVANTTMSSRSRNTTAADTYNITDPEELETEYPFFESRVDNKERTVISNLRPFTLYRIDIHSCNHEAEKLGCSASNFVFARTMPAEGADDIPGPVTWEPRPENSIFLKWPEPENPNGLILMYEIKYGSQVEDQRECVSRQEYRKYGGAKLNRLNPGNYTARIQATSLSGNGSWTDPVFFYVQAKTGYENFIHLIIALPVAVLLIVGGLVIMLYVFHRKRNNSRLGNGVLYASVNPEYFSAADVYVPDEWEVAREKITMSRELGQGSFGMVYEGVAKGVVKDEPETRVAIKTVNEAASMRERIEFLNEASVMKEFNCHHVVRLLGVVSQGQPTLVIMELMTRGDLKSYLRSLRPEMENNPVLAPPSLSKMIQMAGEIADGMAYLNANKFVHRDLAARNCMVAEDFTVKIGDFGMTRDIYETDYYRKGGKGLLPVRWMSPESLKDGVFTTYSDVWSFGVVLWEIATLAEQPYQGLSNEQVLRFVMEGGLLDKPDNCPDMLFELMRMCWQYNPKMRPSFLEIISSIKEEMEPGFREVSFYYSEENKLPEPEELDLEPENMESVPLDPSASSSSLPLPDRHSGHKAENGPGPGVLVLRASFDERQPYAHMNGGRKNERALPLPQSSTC

Row | SMILES | IC50
1 | COc1cc(C(=O)N(C)CCO)ccc1Nc1ncc(Cl)c(-c2cnc3ccccn23)n1 [Example 33, 4-[(5-chloro-4-imidazo[1,2-a]pyridin-3-yl-pyrimidin-2-yl)amino]-N-(2-hydroxyethyl)-3-methoxy-N-methyl-benzamide] | 57 nM
2 | COc1cc(CC(=O)N2CCNCC2)ccc1Nc1ncc(Cl)c(-c2cnc3ccccn23)n1 [Example 34, 2-[4-[(5-chloro-4-imidazo[1,2-a]pyridin-3-yl-pyrimidin-2-yl)amino]-3-methoxy-phenyl]-1-piperazin-1-yl-ethanone] | 98 nM
3 | COc1cc(CC(=O)O)ccc1Nc1ncc(Cl)c(-c2cnc3ccccn23)n1 [Example 34A, 2-(4-(5-chloro-4-(imidazo[1,2-a]pyridin-3-yl)pyrimidin-2-ylamino)-3-methoxyphenyl)acetic acid] | 132 nM
4 | COc1cc(CC(=O)NC2CCNC2)ccc1Nc1ncc(Cl)c(-c2cnc3ccccn23)n1 (centres unmarked) [Example 35, 2-[4-[(5-chloro-4-imidazo[1,2-a]pyridin-3-yl-pyrimidin-2-yl)amino]-3-methoxy-phenyl]-N-pyrrolidin-3-yl-acetamide] | 21 nM
5 | COc1cc(CC(=O)N2CCN(CCO)CC2)ccc1Nc1ncc(Cl)c(-c2cnc3ccccn23)n1 [Example 37, 2-[4-[(5-chloro-4-imidazo[1,2-a]pyridin-3-yl-pyrimidin-2-yl)amino]-3-methoxy-phenyl]-1-[4-(2-hydroxyethyl)piperazin-1-yl]ethanone] | 31 nM
6 | COc1cc(CC(=O)N2CC[C@H](O)C2)ccc1Nc1ncc(Cl)c(-c2cnc3ccccn23)n1 [Example 38, 2-[4-[(5-chloro-4-imidazo[1,2-a]pyridin-3-yl-pyrimidin-2-yl)amino]-3-methoxy-phenyl]-1-[(3S)-3-hydroxypyrrolidin-1-yl]ethanone] | 44 nM
7 | COCC(=O)N1CCN(c2ccc(Nc3ncc(Cl)c(-c4cnc5ccccn45)n3)c(OC)c2)CC1 [Example 39, 1-[4-[4-[(5-chloro-4-imidazo[1,2-a]pyridin-3-yl-pyrimidin-2-yl)amino]-3-methoxy-phenyl]piperazin-1-yl]-2-methoxy-ethanone] | 12 nM
8 | CCC(=O)N1CCN(c2ccc(Nc3ncc(Cl)c(-c4cnc5ccccn45)n3)c(OC)c2)CC1 [Example 42, 1-[4-[4-[(5-chloro-4-imidazo[1,2-a]pyridin-3-yl-pyrimidin-2-yl)amino]-3-methoxy-phenyl]piperazin-1-yl]propan-1-one] | 18 nM
9 | COc1cc(N2CCN(C(=O)C3CC3)CC2)ccc1Nc1ncc(Cl)c(-c2cnc3ccccn23)n1 [Example 43, [4-[4-[(5-chloro-4-imidazo[1,2-a]pyridin-3-ylpyrimidin-2-yl)amino]-3-methoxyphenyl]piperazin-1-yl]-cyclopropylmethanone] | 10 nM
10 | COCCOC(=O)N1CCN(c2ccc(Nc3ncc(Cl)c(-c4cnc5ccccn45)n3)c(OC)c2)CC1 [Example 45, 2-methoxyethyl 4-[4-[(5-chloro-4-imidazo[1,2-a]pyridin-3-yl-pyrimidin-2-yl)amino]-3-methoxy-phenyl]piperazine-1-carboxylate] | 24 nM
11 | COc1cc(N2CCN(C(=O)N3CCOCC3)CC2)ccc1Nc1ncc(Cl)c(-c2cnc3ccccn23)n1 [Example 46, [4-[4-[(5-chloro-4-imidazo[1,2-a]pyridin-3-yl-pyrimidin-2-yl)amino]-3-methoxy-phenyl]piperazin-1-yl]-morpholino-methanone] | 13 nM
12 | COc1cc(N2CCN(C(=O)N(C)CCO)CC2)ccc1Nc1ncc(Cl)c(-c2cnc3ccccn23)n1 [Example 47.1, 4-[4-[(5-chloro-4-imidazo[1,2-a]pyridin-3-yl-pyrimidin-2-yl)amino]-3-methoxy-phenyl]-N-(2-hydroxyethyl)-N-methyl-piperazine-1-carboxamide] | 9 nM
13 | COc1cc(N2CCN(C(=O)N3CCNCC3)CC2)ccc1Nc1ncc(Cl)c(-c2cnc3ccccn23)n1 [Example 47.3, [4-[4-[(5-chloro-4-imidazo[1,2-a]pyridin-3-yl-pyrimidin-2-yl)amino]-3-methoxy-phenyl]piperazin-1-yl]-piperazin-1-yl-methanone] | 6 nM
14 | COc1cc(N2CCN(CCC#N)CC2)ccc1Nc1ncc(Cl)c(-c2cnc3ccccn23)n1 [Example 49, 3-[4-[4-[(5-chloro-4-imidazo[1,2-a]pyridin-3-yl-pyrimidin-2-yl)amino]-3-methoxy-phenyl]piperazin-1-yl]propanenitrile] | 14 nM
15 | COc1cc(N2CCN(C[C@H](C)O)CC2)ccc1Nc1ncc(Cl)c(-c2cnc3ccccn23)n1 [Example 50, (2S)-1-[4-[4-[(5-chloro-4-imidazo[1,2-a]pyridin-3-yl-pyrimidin-2-yl)amino]-3-methoxy-phenyl]piperazin-1-yl]propan-2-ol] | 8 nM
16 | COc1cc(N2CCN(C[C@@H](C)O)CC2)ccc1Nc1ncc(Cl)c(-c2cnc3ccccn23)n1 [Example 51, (2R)-1-[4-[4-[(5-chloro-4-imidazo[1,2-a]pyridin-3-yl-pyrimidin-2-yl)amino]-3-methoxy-phenyl]piperazin-1-yl]propan-2-ol] | 8 nM

Row | SMILES | IC50
17 | COc1cc(N2CCN(CC(C)(C)O)CC2)ccc1Nc1ncc(Cl)c(-c2cnc3ccccn23)n1 [Example 52, 1-[4-[4-[(5-chloro-4-imidazo[1,2-a]pyridin-3-yl-pyrimidin-2-yl)amino]-3-methoxy-phenyl]piperazin-1-yl]-2-methyl-propan-2-ol] | 10 nM
18 | COc1cc(N2CCN(C[C@@H](O)CO)CC2)ccc1Nc1ncc(Cl)c(-c2cnc3ccccn23)n1 [Example 53, (2R)-3-[4-[4-[(5-chloro-4-imidazo[1,2-a]pyridin-3-yl-pyrimidin-2-yl)amino]-3-methoxy-phenyl]piperazin-1-yl]propane-1,2-diol] | 8 nM
19 | COc1ccc(N2CCN(C(N)=O)CC2)cc1Nc1ncc(Cl)c(-c2cnc3ccccn23)n1 [Example 55, 4-[3-[(5-chloro-4-imidazo[1,2-a]pyridin-3-yl-pyrimidin-2-yl)amino]-4-methoxy-phenyl]piperazine-1-carboxamide] | 33 nM
20 | COc1cc(N2CCN(C(=O)[C@@H](O)CO)CC2)ccc1Nc1ncc(Cl)c(-c2cnc3ccccn23)n1 [Example 56, (2S)-1-[4-[4-[(5-chloro-4-imidazo[1,2-a]pyridin-3-yl-pyrimidin-2-yl)amino]-3-methoxy-phenyl]piperazin-1-yl]-2,3-dihydroxy-propan-1-one] | 6 nM
21 | COc1cc(C2CCN(C(=O)N(C)C)CC2)ccc1Nc1ncc(Cl)c(-c2cnc3ccccn23)n1 [Example 57, 4-[4-[(5-chloro-4-imidazo[1,2-a]pyridin-3-yl-pyrimidin-2-yl)amino]-3-methoxy-phenyl]-N,N-dimethyl-piperidine-1-carboxamide] | 6 nM
22 | COc1cc(C2CCN(C(=O)N(C)CCO)CC2)ccc1Nc1ncc(Cl)c(-c2cnc3ccccn23)n1 [Example 58, 4-[4-[(5-chloro-4-imidazo[1,2-a]pyridin-3-yl-pyrimidin-2-yl)amino]-3-methoxy-phenyl]-N-(2-hydroxyethyl)-N-methyl-piperidine-1-carboxamide] | 6 nM
23 | COc1cc(C2CCN(C(C)=O)C(C)C2)ccc1Nc1ncc(Cl)c(-c2cnc3ccccn23)n1 (centres unmarked) [Example 59.1, 1-[4-[4-[(5-chloro-4-imidazo[1,2-a]pyridin-3-yl-pyrimidin-2-yl)amino]-3-methoxy-phenyl]-2-methyl-1-piperidyl]ethanone] | 17 nM
24 | COc1cc(C2CCNC(C)C2)ccc1Nc1ncc(Cl)c(-c2cnc3ccccn23)n1 (centres unmarked) [Example 59.2, 5-chloro-4-imidazo[1,2-a]pyridin-3-yl-N-[2-methoxy-4-(2-methyl-4-piperidyl)phenyl]pyrimidin-2-amine] | 7 nM
25 | COc1cc(OC2CN(C[C@H](C)O)C2)ccc1Nc1ncc(Cl)c(-c2cnc3ccccn23)n1 [Example 61, (2S)-1-[3-[4-[(5-chloro-4-imidazo[1,2-a]pyridin-3-yl-pyrimidin-2-yl)amino]-3-methoxy-phenoxy]azetidin-1-yl]propan-2-ol] | 21 nM
26 | COc1cc(OC2CN(C[C@@H](C)O)C2)ccc1Nc1ncc(Cl)c(-c2cnc3ccccn23)n1 [Example 62, (2R)-1-[3-[4-[(5-chloro-4-imidazo[1,2-a]pyridin-3-yl-pyrimidin-2-yl)amino]-3-methoxy-phenoxy]azetidin-1-yl]propan-2-ol] | 19 nM
27 | COc1cc(OC2CN(CC(C)(C)O)C2)ccc1Nc1ncc(Cl)c(-c2cnc3ccccn23)n1 [Example 63, 1-[3-[4-[(5-chloro-4-imidazo[1,2-a]pyridin-3-yl-pyrimidin-2-yl)amino]-3-methoxy-phenoxy]azetidin-1-yl]-2-methyl-propan-2-ol] | 16 nM
28 | COc1cc(OC2CN(CCO)C2)ccc1Nc1ncc(Cl)c(-c2cnc3ccccn23)n1 [Example 64, 2-[3-[4-[(5-chloro-4-imidazo[1,2-a]pyridin-3-yl-pyrimidin-2-yl)amino]-3-methoxy-phenoxy]azetidin-1-yl]ethanol] | 19 nM
29 | CNC(=O)CN1CCN(c2ccc(Nc3ncc(Cl)c(-c4cnc5ccccn45)n3)c(OC)c2)CC1 [Example 66, 2-[4-[4-[(5-chloro-4-imidazo[1,2-a]pyridin-3-yl-pyrimidin-2-yl)amino]-3-methoxy-phenyl]piperazin-1-yl]-N-methyl-acetamide] | 15 nM
30 | COc1cc(N2CCN(CC(=O)N(C)CCO)CC2)ccc1Nc1ncc(Cl)c(-c2cnc3ccccn23)n1 [Example 67, 2-[4-[4-[(5-chloro-4-imidazo[1,2-a]pyridin-3-yl-pyrimidin-2-yl)amino]-3-methoxy-phenyl]piperazin-1-yl]-N-(2-hydroxyethyl)-N-methyl-acetamide] | 7 nM
31 | COc1cc(OC2CN(C(=O)N(C)CCO)C2)ccc1Nc1ncc(Cl)c(-c2cnc3ccccn23)n1 [Example 68, 3-[4-[(5-chloro-4-imidazo[1,2-a]pyridin-3-yl-pyrimidin-2-yl)amino]-3-methoxy-phenoxy]-N-(2-hydroxyethyl)-N-methyl-azetidine-1-carboxamide] | 24 nM
32 | COc1cc(OC2CN(C(=O)N(C)C)C2)ccc1Nc1ncc(Cl)c(-c2cnc3ccccn23)n1 [Example 69, 3-[4-[(5-chloro-4-imidazo[1,2-a]pyridin-3-yl-pyrimidin-2-yl)amino]-3-methoxy-phenoxy]-N,N-dimethyl-azetidine-1-carboxamide] | 32 nM
